Experimental data: US7358276B2, “2-Oxo-1-pyrrolidine derivatives, processes for preparing them and their uses” (UCB, S.A., priority 2000, dated 2008)

Target: T1, Levetiracetam Binding Site (LBS), rat cerebral cortex membranes (Rattus norvegicus, UniProt Q02563)
T1 construct: The crude membrane pellet obtained is resuspended in 50 mmol/l Tris-HCl (pH 7.4); from tissue; host or cells: rat cerebral cortex crude membranes (male Sprague-Dawley)
Experiment: LBS binding assay (competitive binding, [3H]-2-[4-(3-azidophenyl)-2-oxo-1-pyrrolidinyl]butanamide)
Conditions: 4° C., 120 min

T1 sequence (Q02563 whole entry): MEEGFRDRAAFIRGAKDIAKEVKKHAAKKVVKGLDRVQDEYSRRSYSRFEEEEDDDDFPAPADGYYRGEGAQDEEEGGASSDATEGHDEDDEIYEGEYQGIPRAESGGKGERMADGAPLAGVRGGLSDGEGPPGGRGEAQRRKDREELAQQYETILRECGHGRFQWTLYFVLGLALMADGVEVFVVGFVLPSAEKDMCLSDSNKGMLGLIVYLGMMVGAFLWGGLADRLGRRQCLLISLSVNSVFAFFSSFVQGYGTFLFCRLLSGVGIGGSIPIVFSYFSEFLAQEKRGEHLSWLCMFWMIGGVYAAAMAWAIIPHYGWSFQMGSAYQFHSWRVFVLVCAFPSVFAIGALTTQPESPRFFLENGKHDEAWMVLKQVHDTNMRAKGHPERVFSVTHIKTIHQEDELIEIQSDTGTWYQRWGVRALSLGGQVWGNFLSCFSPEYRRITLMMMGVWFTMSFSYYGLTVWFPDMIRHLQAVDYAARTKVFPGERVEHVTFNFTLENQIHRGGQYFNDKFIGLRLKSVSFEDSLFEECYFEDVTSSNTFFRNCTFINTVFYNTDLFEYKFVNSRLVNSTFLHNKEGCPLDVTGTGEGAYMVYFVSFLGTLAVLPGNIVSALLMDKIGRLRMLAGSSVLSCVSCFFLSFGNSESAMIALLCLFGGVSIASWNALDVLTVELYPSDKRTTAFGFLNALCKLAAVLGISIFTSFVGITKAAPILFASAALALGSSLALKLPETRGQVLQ

Molecule | pKi (affinity for the levetiracetam binding site)
CC[C@@H](C(N)=O)N1CC(c2ccsc2)CC1=O (some centres unmarked) [Compound 88] | Particular affinity
CCC(C(N)=O)N1CC(c2cccc(Cl)c2)CC1=O (centres unmarked) [Compound 170] | Particular affinity
CC[C@@H](C(N)=O)N1CC(CC(C)I)CC1=O (stereo partly drawn) [Compound 225, (2S)-2-[4-(2-iodopropyl)-2-oxo-1-pyrrolidinyl]butanamide] | Particular affinity
(2S)-2-[4-(iodomethyl)-2-oxo-pyrrolidin-1-yl]pentanamide [Compound 105] | Particular affinity
CCC(C(N)=O)N1CC(c2ccccc2C(F)(F)F)CC1=O (centres unmarked) [Compound 171] | Particular affinity
(2S)-2-[4-(iodomethyl)-2-oxo-1-pyrrolidinyl]propanamide [Compound 110] | Particular affinity
CC[C@@H](C(N)=O)N1CC(n2cccc2)CC1=O (single isomer, unassigned) [Compound 223, 4-pyrol-pyrrolidin-2-one] | Particular affinity
CC[C@@H](C(N)=O)N1CC(CCl)CC1=O (stereo partly drawn) [Compound 30, (2S)-2-[4-(chloromethyl)-2-oxo-1-pyrrolidinyl]butanamide] | Particular affinity
CC[C@@H](C(N)=O)N1CC(CC(C)I)CC1=O (stereo partly drawn) [Compound 226, (2S)-2-[4-(2-iodopropyl)-2-oxo-1-pyrrolidinyl]butanamide] | Particular affinity
CCC(C(N)=O)N1CC(c2cccc(Cl)c2)CC1=O (centres unmarked) [Compound 205, 2-[4-(3-chlorophenyl)-2-oxo-1-pyrrolidinyl]butanamide] | Particular affinity
CC[C@@H](C(N)=O)N1CC(CBr)CC1=O (stereo partly drawn) [Compound 8, (2S)-2-[4-(bromomethyl)-2-oxo-1-pyrrolidinyl]butanamide] | Particular affinity
CC[C@@H](C(N)=O)N1CC(CN=C=S)CC1=O (stereo partly drawn) [Compound 49, (2S)-2-[4-(isothiocyanatomethyl)-2-oxo-1-pyrrolidinyl]butanamide] | Particular affinity
CCC(C(N)=O)N1CC(c2cccc(Cl)c2)CC1=O (centres unmarked) [Compound 204, 2-[4-(3-chlorophenyl)-2-oxo-1-pyrrolidinyl]butanamide] | Particular affinity
CCC(C(N)=O)N1CC(C=C(C)C)CC1=O (centres unmarked) [Compound 163, 2-(2-oxo-4-(2,2-dimethylvinyl)-1-pyrrolidinyl)butanamide] | Particular affinity
CCCCCC1CC(=O)N(C(CC)C(N)=O)C1 (centres unmarked) [Compound 142] | Particular affinity
CC[C@@H](C(N)=O)N1CC(COS(=O)(=O)c2ccc(C)cc2)CC1=O (stereo partly drawn) [Compound 31, {1-[(1S)-1-(aminocarbonyl)propyl]-5-oxo-3-pyrrolidinyl}methyl 4-methylbenzenesulfonate] | Particular affinity

Molecule | pKi (affinity for the levetiracetam binding site)
CCCC1CC(=O)N(C(CC)C(N)=O)C1 (centres unmarked) [Compound 127, 2-(2-oxo-4-propyl-1-pyrrolidinyl)butanamide] | Particular affinity
CCC(C(N)=O)N1CC(c2ccccc2F)CC1=O (centres unmarked) [Compound 173] | Particular affinity
C#CC1CC(=O)N(C(CC)C(N)=O)C1 (centres unmarked) [Compound 207, 2-(4-ethynyl-2-oxo-1-pyrrolidinyl)butanamide] | Particular affinity
CCC(C(N)=O)N1CC(CS(=O)(=O)c2ccccc2)CC1=O (centres unmarked) [Compound 43] | Particular affinity
CCC(C(N)=O)N1CC(c2ccc(Cl)cc2)CC1=O (centres unmarked) [Compound 169] | Particular affinity
CCCC1CC(=O)N(C(CCC)C(N)=O)C1 (centres unmarked) [Compound 304] | Particular affinity
CCCC1CC(=O)N(C(C)C(N)=O)C1 (centres unmarked) [Compound 119] | Particular affinity
CC[C@@H](C(N)=O)N1CC(c2ccc(-c3ccccc3)cc2)CC1=O (some centres unmarked) [Compound 98] | Particular affinity
CCC(C(N)=O)N1CC(c2cccc(C)c2)CC1=O (centres unmarked) [Compound 174] | Particular affinity
C=CCC(C(N)=O)N1CC(CCC)CC1=O (centres unmarked) [Compound 351] | Particular affinity
CC[C@@H](C(N)=O)N1CC(CC(C)(C)C)CC1=O (stereo partly drawn) [Compound 149, (2S)-2-(4-neopentyl-2-oxo-1-pyrrolidinyl)butanamide] | Particular affinity
CCCC1CC(=O)N(C(CC2CC2)C(N)=O)C1 (centres unmarked) [Compound 306] | Particular affinity
CC[C@@H](C(N)=O)N1CC(c2cccs2)CC1=O (stereo partly drawn) [Compound 72, (2S)-2-[2-oxo-4-(2-thienyl)-1-pyrrolidinyl]butanamide] | Particular affinity
CCCC1CC(=O)N(C(Cc2cscn2)C(N)=O)C1 (centres unmarked) [Compound 350] | Particular affinity
CC[C@@H](C(N)=O)N1CC(CO[N+](=O)[O-])CC1=O (stereo partly drawn) [Compound 38, {1-[(1S)-1-(aminocarbonyl)propyl]-5-oxo-3-pyrrolidinyl}methyl Nitrate] | Particular affinity
CCC(C(N)=O)N1CC(CC(F)F)CC1=O (centres unmarked) [Compound 157, 2-[4-(2,2-difluoroethyl)-2-oxo-1-pyrrolidinyl]butanamide] | Particular affinity

Test system: audiogenic seizures in sound-susceptible mice
Experiment: Animal model of sound-susceptible mice (audiogenic seizures)
Type: in vivo
Conditions: intraperitoneally 60 minutes before induction of audiogenic seizures; doses given in mol/kg
From the text: The activity of the compounds of formula I, or their pharmaceutically acceptable salts, as anticonvulsants can be determined in the audiogenic seizures model. The objective of this test is to evaluate the anticonvulsant potential of a compound by means of audiogenic seizures induced in sound-susceptible mice, a genetic animal model with reflex seizures. In this model of primary generalised epilepsy, seizures are evoked without electrical or chemical stimulation and the seizure types are, at least in part, similar in their clinical phenomenology to seizures occurring in man (Löscher W. & Schmidt D., Epilepsy Res. (1998), 2, p. 145-181; Buchhalter J. R., Epilepsia (1993), 34, S31-S41). Results obtained with compounds of formula I are indicative of a strong pharmacological effect.
The objective of this test is to evaluate the anticonvulsant potency of a compound in sound-susceptible mice, a genetic animal model with reflex seizures. In this model of primary generalised epilepsy, seizures are evoked without electrical or chemical stimulation and the seizure types are, at least in part, similar in their clinical phenomenology to seizures occuring in man (Löscher W. & Schmidt D., Epilepsy Res. (1998), 2, 145-181; Buchhalter J. R., Epilepsia (1993), 34, S31-S41).
Male or female genetically sound-sensitive mice (14-28 g; N=10), derived from a DBA strain originally selected by Dr. Lehmann of the Laboratory of Acoustic Physiology (Paris) and bred in the UCB Pharma Sector husbandry unit since 1978, are used. The experimental design consisted of several groups, one group receiving the vehicle control and the other groups different doses of the test-compound. The compounds are administered intraperitoneally 60 minutes before the induction of audiogenic seizures.
For testing, the animals are placed in small cages, one mouse per cage, in a sound-attenuated chamber. After a period of orientation of 30 seconds, the acoustic stimulus (90 dB, 10-20 kHz) is delivered for 30 seconds via loudspeakers positioned above each cage. During this interval, the mice are observed and the presence of the 3 phases of the seizure activity namely wild running, clonic and tonic convulsions, is recorded. The proportion of mice protected against wild running, clonic and tonic convulsions, respectively, is calculated.
For active compounds, an ED50 value, i.e. the dose producing 50% protection relative to the control group, together with 95% confidence limits, was calculated using a Probit Analysis (SAS/STAT® Software, version 6.09, PROBIT procedure) of the proportions of protected mice for each of the 3 phases of the seizure activity.

Molecule | ED50 (dose producing 50% protection against audiogenic seizures)
CC[C@@H](C(N)=O)N1CC(c2ccsc2)CC1=O (some centres unmarked) [Compound 88] | Particularly promising activity
(2S)-2-[4-(iodomethyl)-2-oxo-pyrrolidin-1-yl]pentanamide [Compound 105] | Particularly promising activity
(2S)-2-[4-(iodomethyl)-2-oxo-1-pyrrolidinyl]propanamide [Compound 110] | Particularly promising activity
CCCC(CN[C@@H](CC)C(N)=O)CC(=O)OCCC12CC3CC(CC(C3)C1)C2.Cl (mixture of isomers) [AA 3, 2-(1-adamantyl)ethyl 3-({[(1S)-1-(aminocarbonyl)propyl]amino}methyl)hexanoate hydrochloride] | Particularly promising activity
CC[C@@H](C(N)=O)N1CC(n2cccc2)CC1=O (single isomer, unassigned) [Compound 223, 4-pyrol-pyrrolidin-2-one] | Particularly promising activity
CCCC(CN[C@@H](CC)C(N)=O)CC(=O)OC(C)C.Cl (mixture of isomers) [AA 5, isopropyl 3-({[(1S)-1-(aminocarbonyl)propyl]amino}methyl)hexanoate hydrochloride] | Particularly promising activity
CCCCOC(=O)CC(CCC)CN[C@@H](CC)C(N)=O.Cl (mixture of isomers) [AA 4, butyl 3-({[(1S)-1-(aminocarbonyl)propyl]amino}methyl)hexanoate hydrochloride] | Particularly promising activity
CCCC(CN[C@@H](CC)C(N)=O)CC(=O)OCC.Cl (stereo partly drawn) [AA 2, ethyl 3-({[(1S)-1-(aminocarbonyl)propyl]amino}methyl)hexanoate hydrochloride] | Particularly promising activity
CCCC(CN[C@@H](CC)C(N)=O)CC(=O)OCC.Cl (stereo partly drawn) [AA 1, ethyl 3-({[(1S)-1-(aminocarbonyl)propyl]amino}methyl)hexanoate hydrochloride] | Particularly promising activity
